The structures appear in SMILES notation. Like-named read-outs stand apart in the source and are kept apart here.

The subject of data set [1] is Beet Armyworm (Spodoptera exigua) ("BAW"), second instar larvae. Nature of the data set: Bioassay on beet armyworm (BAW), 128-well diet tray assay. As to conditions: for BAW rating (% control or mortality class) / BAW rating: Table ABC, species BAW; for BAW rating (% control or mortality class): 128-well diet tray assay, second instar larvae; for pest or weed control at 50 µg/cm2: Spodoptera exigua; for BAW rating: C = not tested, D = no activity noticed. It counts as in vivo. Summed up:
(§1)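 Mortality (%) is scored well by well after five to seven days at 25° C. on a 14:10 light:dark regime. The value given is the mean of eight wells.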

The test system of data set [2] is Cabbage Looper (Trichoplusia ni) ("CL"), second instar larvae. As to the kind of experiment: Bioassay on cabbage looper (CL), 128-well diet tray assay. As to conditions: for mortality at 50 µg/cm2 / pest or weed control at 50 µg/cm2: Trichoplusia ni; for mortality at 50 µg/cm2 / CL rating: Table ABC, species CL; for mortality at 50 µg/cm2: 128-well diet tray assay, second instar larvae, read-out: CL rating (% control or mortality class); for CL rating: C = not tested, D = no activity noticed. The format is in vivo. Summed up:
as §1

Setting [3] is: read-out: BAW (Biological Results, rating).
Setting [4] is: read-out: CL (Biological Results, rating).

By mortality is commonly meant the share of the test organisms that died. For the molecule `Cc1ccc(C(C)C)c(N2C(=O)CS/C2=N\C(=O)Nc2ccc(-n3cnc(-c4ccc(OC(F)(F)F)cc4)c3)cc2Cl)c1` [Compound J792, (Z)-1-(2-Chloro-4-(4-(4-(trifluoromethoxy)phenyl)-1H-imidazol-1-yl)phenyl)-3-(3-(2-isopropyl-5-methylphenyl)-4-oxothiazolidin-2-ylidene)urea], in data set [1], the “BAW rating (% control or mortality class)” value is recorded as “A (50-100)”. For the same molecule, in data set [2], the mortality at 50 µg/cm2 is 50 to 100%.
Consider `COC(c1ccc(C)cc1N1C(=O)CS/C1=N\C(=O)Nc1ccc(-c2cn(-c3ccc(S(F)(F)(F)(F)F)cc3)cn2)cc1F)C(F)(F)F` (centres unmarked) [Compound J599, (Z)-1-(2-Fluoro-4-(1-(4-(pentafluoro-λ^6-sulfaneyl)phenyl)-1H-imidazol-4-yl)phenyl)-3-(3-(5-methyl-2-(2,2,2-trifluoro-1-methoxyethyl)phenyl)-4-oxothiazolidin-2-ylidene)urea], for which the pest or weed control at 50 µg/cm2 in data set [1] (read-out: BAW rating) and in data set [2] (read-out: CL rating) was 50 to 100% each time.
In the case of `Cc1ccc(C(F)(F)F)cc1N1C(=O)CS/C1=N\C(=O)Nc1ccc(-c2ncn(-c3ccc(OC(F)(F)F)cc3)n2)cc1F` [Compound J799, (Z)-1-(2-Fluoro-4-(1-(4-(trifluoromethoxy)phenyl)-1H-1,2,4-triazol-3-yl)phenyl)-3-(3-(2-methyl-5-(trifluoromethyl)phenyl)-4-oxothiazolidin-2-ylidene)urea], the “BAW rating (% control or mortality class)” value in data set [1] is given as “A (50-100)”. Moreover, in data set [2], the mortality at 50 µg/cm2 fell in the range of 50 to 100%.
As to `Cc1ccc(C(C)C)c(N2C(=O)CS/C2=N\C(=O)Nc2ccc(-c3ncn(-c4ccc(OC(F)(F)C(F)(F)F)cc4)n3)cc2F)c1` [Compound J26, (Z)-1-(2-Fluoro-4-(1-(4-(perfluoroethoxy)phenyl)-1H-1,2,4-triazol-3-yl)phenyl)-3-(3-(2-isopropyl-5-methylphenyl)-4-oxothiazolidin-2-ylidene)urea], the pest or weed control at 50 µg/cm2 in data set [1] (setting [3]) and in data set [2] (setting [4]) was 50 to 100% in each case.
For the molecule `Cc1ccc(C(C)C)c(N2C(=O)CS/C2=N\C(=O)Nc2ccc(-c3cn(-c4ccc(C(F)(F)F)cn4)cn3)cc2F)c1` [Compound J482, (Z)-1-(2-Fluoro-4-(1-(5-(trifluoromethyl)pyridin-2-yl)-1H-imidazol-4-yl)phenyl)-3-(3-(2-isopropyl-5-methylphenyl)-4-oxothiazolidin-2-ylidene)urea], the pest or weed control at 50 µg/cm2 in data set [1] (read-out: BAW rating) and in data set [2] (read-out: CL rating) was 50 to 100% in each case.
As for `CC(C)c1ccc(N(C)C)cc1N1C(=O)CS/C1=N\C(=O)Nc1ccc(-c2ncn(-c3ccc(OCC#N)cc3)n2)cc1F` [Compound J342, (Z)-1-(4-(1-(4-(Cyanomethoxy)phenyl)-1H-1,2,4-triazol-3-yl)-2-fluorophenyl)-3-(3-(5-(dimethylamino)-2-isopropylphenyl)-4-oxothiazolidin-2-ylidene)urea], the pest or weed control at 50 µg/cm2 in data set [1] (setting [3]) and in data set [2] (setting [4]) was 50 to 100% each time.
`Cc1ccc(COCC(Cl)(Cl)Cl)c(N2C(=O)CS/C2=N\C(=O)Nc2ccc(-c3ncn(-c4ccc(OC(F)(F)F)cc4)n3)cc2F)c1` [Compound J452]: the BAW rating result in data set [1] is listed as “A (50-100)”. In data set [2], the CL rating result is listed as “A (50-100)”.
`Cc1ccc(COCC(F)(F)Cl)c(N2C(=O)CS/C2=N\C(=O)Nc2ccc(-c3ncn(-c4ccc(OC(F)(F)F)cc4)n3)cc2F)c1` [Compound J437]: the BAW rating entry in data set [1] is “A (50-100)”. For the same molecule, the CL rating entry in data set [2] is “A (50-100)”.
As for `Cc1ccc(COCC(F)(F)F)c(N2C(=O)CS/C2=N\C(=O)Nc2ccc(-c3ncn(-c4ccc(OC(F)(F)F)cc4)n3)cc2C(F)F)c1` [Compound J215, (Z)-1-(2-(Difluoromethyl)-4-(1-(4-(trifluoromethoxy)phenyl)-1H-1,2,4-triazol-3-yl)phenyl)-3-(3-(5-methyl-2-((2,2,2-trifluoroethoxy)methyl)phenyl)-4-oxothiazolidin-2-ylidene)urea], the pest or weed control at 50 µg/cm2 in data set [1] (setting [3]) and in data set [2] (setting [4]) was 50 to 100% in each case.
`COc1ccc(CC(F)(F)F)c(N2C(=O)CS/C2=N\C(=O)NCC(F)c2ccc(-c3ncn(-c4ccc(OC(F)(F)F)cc4)n3)c(OC)c2)c1` (centres unmarked) [Compound H17]: the pest or weed control at 50 µg/cm2 in data set [1] (setting [3]) and in data set [2] (setting [4]) was 50 to 100% in each case.
As to `COC(C)c1ccc(C)cc1N1C(=O)CS/C1=N\C(=O)Nc1ccc(-c2ncn(-c3ccc(OC(F)(F)F)cc3)n2)cc1C` (centres unmarked) [Compound J60, (Z)-1-(3-(2-(1-Methoxyethyl)-5-methylphenyl)-4-oxothiazolidin-2-ylidene)-3-(2-methyl-4-(1-(4-(trifluoromethoxy)phenyl)-1H-1,2,4-triazol-3-yl)phenyl)urea], the pest or weed control at 50 µg/cm2 in data set [1] (setting [3]) and in data set [2] (setting [4]) was 50 to 100% in each case.
`COc1ccc(CC(F)(F)F)c(N2C(=O)CS/C2=N\C(=O)NC(C)Cc2ccc(-c3ncn(-c4ccc(OC(F)(F)F)cc4)n3)cc2)c1` (centres unmarked) [Compound H15]: the pest or weed control at 50 µg/cm2 in data set [1] (setting [3]) and in data set [2] (setting [4]) was 50 to 100% in each case.
In the case of `COc1ccc(COCC(F)(F)F)c(N2C(=O)CS/C2=N\C(=O)Nc2ccc(-c3ncn(-c4ccc(S(F)(F)(F)(F)F)cc4)n3)cc2C)c1` [Compound J577], the BAW rating result in data set [1] is reported as “A (50-100)”. Further, in data set [2], the CL rating result is “A (50-100)”.
In the case of `Cc1ccc(C(C)C)c(N2C(=O)CS/C2=N\C(=O)Nc2ccc(-c3ncn(-c4ccc(OC(F)(F)F)cn4)n3)cc2F)c1` [Compound J270, (Z)-1-(2-Fluoro-4-(1-(5-(trifluoromethoxy)pyridin-2-yl)-1H-1,2,4-triazol-3-yl)phenyl)-3-(3-(2-isopropyl-5-methylphenyl)-4-oxothiazolidin-2-ylidene)urea], the pest or weed control at 50 µg/cm2 in data set [1] (setting [3]) and in data set [2] (setting [4]) was 50 to 100% each time.
In the case of `CC(=O)N(C)c1ccc(C(C)C)c(N2C(=O)CS/C2=N\C(=O)Nc2ccc(-c3ncn(-c4ccc(OC(F)(F)F)cc4)n3)cc2F)c1` [Compound J188, (Z)-N-(3-(2-(((2-Fluoro-4-(1-(4-(trifluoromethoxy)phenyl)-1H-1,2,4-triazol-3-yl)phenyl)carbamoyl)imino)-4-oxothiazolidin-3-yl)-4-isopropylphenyl)-N-methylacetamide], the pest or weed control at 50 µg/cm2 in data set [1] (setting [3]) and in data set [2] (setting [4]) was 50 to 100% each time.
For `CC(C)c1cc(F)c(N(C)C)cc1N1C(=O)CS/C1=N\C(=O)Nc1ccc(-c2cn(-c3ccc(S(F)(F)(F)(F)F)cc3)cn2)cc1F` [Compound J604, (Z)-1-(3-(5-(Dimethylamino)-4-fluoro-2-isopropylphenyl)-4-oxothiazolidin-2-ylidene)-3-(2-fluoro-4-(1-(4-(pentafluoro-λ^6-sulfaneyl)phenyl)-1H-imidazol-4-yl)phenyl)urea], the pest or weed control at 50 µg/cm2 in data set [1] (read-out: BAW rating) and in data set [2] (read-out: CL rating) was 50 to 100% each time.
For `COC(C)c1ccc(C)cc1N1C(=O)CS/C1=N\C(=O)Nc1ccc(-c2ncn(-c3ccc(OC(F)(F)F)cc3)n2)cc1Br` (centres unmarked) [Compound J220, (Z)-1-(2-Bromo-4-(1-(4-(trifluoromethoxy)phenyl)-1H-1,2,4-triazol-3-yl)phenyl)-3-(3-(2-(1-methoxyethyl)-5-methylphenyl)-4-oxothiazolidin-2-ylidene)urea], the pest or weed control at 50 µg/cm2 in data set [1] (setting [3]) and in data set [2] (setting [4]) was 50 to 100% in each case.
Turning to `O=C(/N=C1\SCC(=O)N1c1ccccc1COCC(F)(F)F)Nc1ccc(-n2cnc(-c3ccc(OC(F)(F)F)cc3)n2)cc1Cl` [Compound J732, (Z)-1-(2-Chloro-4-(3-(4-(trifluoromethoxy)phenyl)-1H-1,2,4-triazol-1-yl)phenyl)-3-(4-oxo-3-(2-((2,2,2-trifluoroethoxy)methyl)phenyl)thiazolidin-2-ylidene)urea], the pest or weed control at 50 µg/cm2 in data set [1] (read-out: BAW rating) and in data set [2] (read-out: CL rating) was 50 to 100% each time.
For `COC(C)c1ccc(C)cc1N1C(=O)CS/C1=N\C(=O)Nc1ccc(-c2ccn(-c3ccc(C(F)(F)F)cn3)n2)cc1F` (centres unmarked) [Compound J309, (Z)-1-(2-Fluoro-4-(1-(5-(trifluoromethyl)pyridin-2-yl)-1H-pyrazol-3-yl)phenyl)-3-(3-(2-(1-methoxyethyl)-5-methylphenyl)-4-oxothiazolidin-2-ylidene)urea], the pest or weed control at 50 µg/cm2 in data set [1] (setting [3]) and in data set [2] (setting [4]) was 50 to 100% each time.
In the case of `CCOc1ccc(-n2cnc(-c3ccc(NC(=O)/N=C4\SCC(=O)N4c4cc(C)c(C)cc4COCC(F)(F)F)c(F)c3)n2)cc1` [Compound J620], the BAW rating result in data set [1] is listed as “A (50-100)”. Further, the CL rating result in data set [2] is “A (50-100)”.
As for `Cc1ccc(C(C)C)c(N2C(=O)CS/C2=N\C(=O)Nc2ccc(-n3cnc(-c4ccc(OC(F)(F)F)cc4)n3)cc2Cl)c1` [Compound J728, (Z)-1-(2-Chloro-4-(3-(4-(trifluoromethoxy)phenyl)-1H-1,2,4-triazol-1-yl)phenyl)-3-(3-(2-isopropyl-5-methylphenyl)-4-oxothiazolidin-2-ylidene)urea], the pest or weed control at 50 µg/cm2 in data set [1] (read-out: BAW rating) and in data set [2] (read-out: CL rating) was 50 to 100% throughout.
As for `COC(C)c1ccc(C)cc1N1C(=O)CS/C1=N\C(=O)Nc1c(F)cc(-c2ncn(-c3ccc(OC(F)(F)F)cc3)n2)cc1F` (centres unmarked) [Compound J81, (Z)-1-(2,6-Difluoro-4-(1-(4-(trifluoromethoxy)phenyl)-1H-1,2,4-triazol-3-yl)phenyl)-3-(3-(2-(1-methoxyethyl)-5-methylphenyl)-4-oxothiazolidin-2-ylidene)urea], the pest or weed control at 50 µg/cm2 in data set [1] (setting [3]) and in data set [2] (setting [4]) was 50 to 100% each time.

These data come from patent publication US20230077362A1 (CORTEVA AGRISCIENCE LLC, priority 2019, published 2023).
